Test results from paper PMC9144480 (Pharmaceuticals, 2022).
Entries after “also recorded” stand apart in the source; their conditions may differ. Where two headings read alike, the source gives them in different places.

Legend:
[1] = tested on: pseudovirus bearing SARS-CoV-2 S protein (original strain); assay: microbe, parasite or virus in culture; format: cell-based
HCV E–CD81 PPI = target: T1, HCV E–CD81 PPI (UniProt P27958+P60033); assay: biochemical; format: binding
T1 construct: hepatitis C virus envelope glycoprotein E with CD81; purchased R&D Systems 9146-HC; 9144-CD

SARS-CoV-2 spike RBD = target: T2, SARS-CoV-2 spike RBD (Severe acute respiratory syndrome coronavirus 2, UniProt P0DTC2); assay: Surface plasmon resonance binding to spike RBD; conditions: single and multicycle kinetics; qualitative, not 1:1 binding
T2 construct: SARS-CoV-2 spike RBD (His-tagged, Arg319-Ph541); RayBiotech; His tag; purchased RayBiotech
Description: SPR was performed at Reaction Biology (Malvern, PA, USA) using single and multicycle kinetics to assess the binding to the SARS-CoV-2 spike RBD (His-tagged, Arg319-Ph541; RayBiotech; Peachtree Corners, GA, USA) and determine the kinetics/affinity. Measurements were performed on a Biacore 8K (Cytiva) with a series S CM5 (Cytiva) sensor chip. Spike RBD was immobilized via amine coupling at pH 5.5 to immobilization levels of ~1500–2300 RU (single-cycle) and ~2500 RU (multi-cycle). A running buffer of PBS-p+ (20 mM phosphate buffer with 2.7 mM KCl, 137 mM NaCl, and 0.05% surfactant Tween20) with 1% DMSO was used. All data was solvent corrected, reference subtracted, and blank subtracted using the Biacore Insight Evaluation Software. To try and obtain kinetic/affinity parameters, the data was evaluated using a 1:1 kinetic binding model. However, the binding behavior appears to be more complex than can be approximated using a 1:1 binding model, which prevents a quantitative analysis of the SPR binding data.

HEK293T cells = assay: Cytotoxicity, MTT assay; format: cell-based, human; conditions: 48 h with MeBlu + 48 h culture
Description: For the MTT assay, HEK293T cells were seeded onto 96 wells with the density of 5.0 × 10^4 cells per well. […] After that, cells were incubated with MTT reagent at 37 °C for 2 h. The medium was removed, and dimethyl sulfoxide was added. Cell viability was evaluated using a microplate reader at 570 nm absorbance (SpectraMax iD3, Molecular DEVICES, San Jose, CA, USA).

IL-2–IL-2Rα PPI = target: T3, IL-2–IL-2Rα PPI (Homo sapiens, UniProt P01589+P60568); assay: biochemical; format: binding
T3 construct: purchased ACROBiosystems IL2-H52H8; ILA-H5251

HCoV-NL63 S1–hACE2 PPI = target: T4, HCoV-NL63 S1–hACE2 PPI (Homo sapiens, UniProt Q9BYF1); assay: biochemical; format: binding
T4 construct: HCoV-NL63 S1 (His tag, 40600-V08H); purchased Sino Biological 40600-V08H; 10108-H05H

COVID-19 [2] = conditions: cited from earlier work
SARS-CoV-2 [3] = conditions: read-out: IC50, concentration levels that seem to provide antiviral activity; overall range over this work and published studies; ref Table 1; cited from earlier work
SARS-CoV-2 [4] = conditions: read-out: IC50, SARS-CoV-2 antiviral activity; Vero E6; ref [36]; cited from earlier work
CD40–CD154 PPI = conditions: ref [23]; cited from earlier work
SARS-CoV-2 [5] = conditions: cited from earlier work
[6] = cited from earlier work
COVID-19 [7] = conditions: cited from earlier work; remark: listed apart in the source
COVID-19 [8] = conditions: human, in vivo, iv, 1 mg/kg; cited from earlier work
[9] = ref [19],[21],[22]; cited from earlier work
[10] = tested on: influenza-like illness during COVID-19 pandemic; conditions: 2500 patients, MeBlu 75 mg t.i.d., March 2020; ref [49]; cited from earlier work
[11] = tested on: VSV-SARS-CoV-2-Sdel18 pseudovirus; conditions: Vero E6; ref [40]; read-out: IC50, VSV-SARS-CoV-2-Sdel18 pseudovirus entry; cited from earlier work
SARS-CoV-2 pseudovirus = assay: microbe, parasite or virus in culture; conditions: Severe acute respiratory syndrome-related coronavirus, HEK-293T, read-out: IC50, SARS-CoV-2 pseudovirus cell entry
TNF-R1−TNFα PPI = conditions: ref [23]; cited from earlier work
SARS-CoV-2 (B.1.5) = assay: microbe, parasite or virus in culture; format: cell-based; conditions: Severe acute respiratory syndrome coronavirus 2, Vero C1008, 48 h, read-out: IC50, inhibition of SARS-CoV-2 replication
hACE2 = hACE2 (Homo sapiens, UniProt Q9BYF1); assay: Surface plasmon resonance (single-cycle kinetics) binding to hACE2; conditions: data not shown
hCoV-229E = conditions: read-out: IC50, image-based multicycle replication assay; Huh7; ref [41]; cited from earlier work
influenza virus H1N1 = conditions: ref [36]; cited from earlier work
[12] = Pseudovirus, HEK-293T, read-out: IC50, inhibition of cell entry of pseudovirus

T3 sequence (P01589 22-213): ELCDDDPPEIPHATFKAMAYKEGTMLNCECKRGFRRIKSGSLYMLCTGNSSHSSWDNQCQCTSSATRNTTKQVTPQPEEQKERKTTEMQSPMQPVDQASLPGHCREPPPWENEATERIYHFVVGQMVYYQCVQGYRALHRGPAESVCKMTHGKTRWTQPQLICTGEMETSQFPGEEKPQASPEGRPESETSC
T3 sequence (P60568 21-153): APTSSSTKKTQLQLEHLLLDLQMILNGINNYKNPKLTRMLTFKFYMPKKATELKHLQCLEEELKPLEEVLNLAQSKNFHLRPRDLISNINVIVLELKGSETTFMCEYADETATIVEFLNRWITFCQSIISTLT
Sequence of hACE2 (Q9BYF1 18-805): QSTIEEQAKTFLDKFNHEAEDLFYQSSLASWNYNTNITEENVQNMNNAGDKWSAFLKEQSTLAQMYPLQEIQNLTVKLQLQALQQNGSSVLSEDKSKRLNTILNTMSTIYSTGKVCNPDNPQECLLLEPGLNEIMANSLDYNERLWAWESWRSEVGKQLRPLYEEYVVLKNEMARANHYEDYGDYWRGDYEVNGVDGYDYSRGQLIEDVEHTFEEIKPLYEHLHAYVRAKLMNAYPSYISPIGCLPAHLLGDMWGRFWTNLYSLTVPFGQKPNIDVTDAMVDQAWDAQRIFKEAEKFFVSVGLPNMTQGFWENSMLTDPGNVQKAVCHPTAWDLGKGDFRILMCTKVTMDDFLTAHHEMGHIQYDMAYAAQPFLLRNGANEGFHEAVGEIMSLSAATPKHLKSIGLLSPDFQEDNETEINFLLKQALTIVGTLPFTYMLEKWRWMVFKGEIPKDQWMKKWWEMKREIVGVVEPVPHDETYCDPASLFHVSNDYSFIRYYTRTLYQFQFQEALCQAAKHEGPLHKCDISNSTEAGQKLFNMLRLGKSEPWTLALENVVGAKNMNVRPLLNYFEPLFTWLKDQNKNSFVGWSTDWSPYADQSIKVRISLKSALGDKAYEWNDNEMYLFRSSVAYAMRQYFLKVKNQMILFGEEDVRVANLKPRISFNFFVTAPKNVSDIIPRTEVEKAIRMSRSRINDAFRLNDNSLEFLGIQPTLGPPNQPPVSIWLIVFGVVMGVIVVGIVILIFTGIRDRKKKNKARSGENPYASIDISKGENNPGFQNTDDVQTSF
T4 sequence (Q9BYF1 18-740): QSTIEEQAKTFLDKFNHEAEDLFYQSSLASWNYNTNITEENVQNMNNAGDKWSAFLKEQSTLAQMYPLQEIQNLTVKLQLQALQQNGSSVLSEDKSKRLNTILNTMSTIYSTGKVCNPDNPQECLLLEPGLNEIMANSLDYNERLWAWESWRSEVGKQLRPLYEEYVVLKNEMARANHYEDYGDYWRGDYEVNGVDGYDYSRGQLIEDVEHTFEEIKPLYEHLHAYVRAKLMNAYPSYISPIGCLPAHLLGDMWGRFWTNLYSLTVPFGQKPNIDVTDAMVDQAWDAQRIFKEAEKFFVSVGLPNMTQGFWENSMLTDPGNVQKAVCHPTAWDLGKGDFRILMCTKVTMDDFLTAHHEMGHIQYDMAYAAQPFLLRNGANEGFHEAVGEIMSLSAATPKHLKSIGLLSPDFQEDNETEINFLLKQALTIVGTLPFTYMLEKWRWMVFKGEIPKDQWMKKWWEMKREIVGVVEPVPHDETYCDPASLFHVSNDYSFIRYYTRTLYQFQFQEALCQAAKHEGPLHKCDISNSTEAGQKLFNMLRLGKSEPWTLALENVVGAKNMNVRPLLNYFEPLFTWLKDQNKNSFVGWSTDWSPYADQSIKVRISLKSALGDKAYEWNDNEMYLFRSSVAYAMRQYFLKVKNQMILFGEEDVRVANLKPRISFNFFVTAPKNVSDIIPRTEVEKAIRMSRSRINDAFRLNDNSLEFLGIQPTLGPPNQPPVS
T1 sequence (P60033 113-201): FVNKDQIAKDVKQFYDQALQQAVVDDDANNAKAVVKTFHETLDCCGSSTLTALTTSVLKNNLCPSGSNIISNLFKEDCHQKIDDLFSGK
T1 sequence (P27958 384-746): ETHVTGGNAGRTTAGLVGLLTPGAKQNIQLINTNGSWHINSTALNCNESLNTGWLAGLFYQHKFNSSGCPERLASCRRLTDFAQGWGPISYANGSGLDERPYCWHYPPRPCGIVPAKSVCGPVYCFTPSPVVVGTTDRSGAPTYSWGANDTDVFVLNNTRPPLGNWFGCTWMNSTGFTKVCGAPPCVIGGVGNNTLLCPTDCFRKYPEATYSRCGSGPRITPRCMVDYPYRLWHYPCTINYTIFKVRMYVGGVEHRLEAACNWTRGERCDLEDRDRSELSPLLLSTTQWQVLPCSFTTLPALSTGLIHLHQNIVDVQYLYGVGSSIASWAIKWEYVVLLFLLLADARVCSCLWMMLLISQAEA

CN(C)c1ccc2nc3ccc(=[N+](C)C)cc-3sc2c1 [MeBlu, methylene blue]
IC50 ([1]; Pseudovirus, HEK-293T, read-out: IC50, inhibition of cell entry of pseudovirus, BacMam pseudovirus, original strain, HEK293T): 3600 nM
IC50 ([1]; read-out: IC50, inhibition of cell entry of pseudovirus, BacMam pseudovirus, original strain, HEK293T): 3640 nM
IC50 (HCV E–CD81 PPI): 800 nM
SPR binding to SARS-CoV-2 spike RBD (SARS-CoV-2 spike RBD): low‐micromolar binding; also recorded: low micromolar range
TC50, cell viability (MTT) (HEK293T cells): 57900 nM
IC50 (IL-2–IL-2Rα PPI): 370 nM
IC50 (HCoV-NL63 S1–hACE2 PPI): 1930 nM
treated patients who responded well to the treatment (COVID-19 [2]; Phase 1, MeBlu 1 mg/kg with vitamin C and N-acetyl cysteine, critically ill, ref [50]): four of the five
hospital stays (COVID-19 [2]; Phase 2, vs. 11.7 ± 6.6 without MeBlu, p = 0.004, ref [51]): 7.3 ± 4.7 days
mortality (COVID-19 [2]; Phase 2, vs. 22.5% without MeBlu, ref [51]): 12.5%
hospital stays (COVID-19 [2]; Phase 3, oral MeBlu added to standard care, 223 patients, vs. 10.6 ± 9.2, p < 0.001, ref [52]): 6.2 ± 3.1
mortality (COVID-19 [2]; Phase 3, vs. 21.4%, p = 0.07, ref [52]): 12.2%
inhibition of CD40–CD154 (CD40L) PPI (CD40–CD154 PPI): inhibited; also recorded: low micromolar
trough levels ([6]; 207 mg/day (69 mg, t.i.d., p.o.), ref [43]): 6 to 7 µM
oral bioavailability (F) ([6]; ref [42]): ≈ 80%
terminal elimination half-life (t1/2) ([6]; ref [42]): ≈ 14 h
hospital stays (COVID-19 [7]; nebulized MeBlu, observational study, 63 patients, vs. 12, ref [55]): 9.17 days
side effects or adverse events (COVID-19 [8]): no major side effects or adverse events
dose above which undesired side effects (nausea, vomiting, hemolysis) are increasingly common [9]: higher than 7 mg/kg
patients who developed influenza-like illness [10]: none
IC50 [11]: 9000 nM
IC50 (SARS-CoV-2 pseudovirus): 3000 to 5000 nM
inhibition of TNF-R1–TNFα PPI (TNF-R1−TNFα PPI): inhibited; also recorded: low micromolar
SPR binding to hACE2 (hACE2): low micromolar range
IC50 (hCoV-229E): 1400 nM
activity against influenza virus H1N1 (influenza virus H1N1): Also active against influenza virus H1N1

CCN(CCO)CCCC(C)Nc1ccnc2cc(Cl)ccc12 (stereo not drawn) [HCQ, hydroxychloroquine]
IC50 [1, 12]: > 500000 nM

O=S(=O)(O)c1ccc(N=Nc2c(O)ccc3cc(S(=O)(=O)O)ccc23)cc1 [SY(FD&C#6), sunset yellow FCF]
IC50 [1, 12]: > 500000 nM

Nc1c(/N=N/c2ccc([N+](=O)[O-])cc2)c(S(=O)(=O)O)cc2cc(S(=O)(=O)O)c(/N=N/c3ccccc3)c(O)c12 [NBlBk, naphthol blue black]
IC50 [1, 12]: > 500000 nM
